The source of these data is patent US20100003250A1, “(2-ARYL-7H-PYRROLO[2,3-D]PYRIMIDIN-4-YL)MORPHOLINE COMPOUNDS, THEIR USE AS MTOR KINASE AND PI3 KINASE INHIBITORS, AND THEIR SYNTHESES” (Wyeth, priority 2008, published 2010).

Type in all cases: biochemical
One test addresses PI3Kα (Homo sapiens, UniProt P42336). Kind of test: PI3K-alpha fluorescence polarization assay. To be noted: 20 μM PIP2, 25 μM ATP; read-out: PI3Kα Median IC50. On the technique in general: Polarisation of emitted light reports the rotation of a fluorescent probe.
A further test addresses PI3Kγ (Homo sapiens, UniProt P48736). The test is described as follows: PI3K-gamma fluorescence polarization assay. To be noted: 20 μM PIP2, 25 μM ATP; read-out: PI3Kγ Median IC50. On the procedure: PI3K-alpha and PI3K-gamma Fluorescence Polarization Assay Protocols
The reaction buffer was 20 mM HEPES pH 7.5, 2 mM MgCl2, 0.05% CHAPS, and 0.01% βME (added fresh). The substrate solution was 40 μM PIP2 (diC8, Echelon, Salt Lake City Utah cat # P-4508, 1 mM in water) and 50 μM ATP in the reaction buffer. Nunc 384-well black polypropylene fluorescent plates were used for PI3K assays. The assay is run by putting 9.5 μl of freshly diluted enzyme in the reaction buffer per well, adding 0.5 μl of diluted drug or DMSO, and mixing. Then 10 μl of the substrate solution is added to each well to start the reaction. A final concentration of 20 μM PIP2 and 25 μM ATP in the reaction was used. Reactions were allowed to proceed for 30-60 minutes at room temperature. After 30-60 minutes, 20 μl of a solution of 10 nM TAMRA detector (Red detector probe-Echelon) and 2.5 μM of GST-murineGRP (1.5 mg/ml in 17% glycerol) was added per well to stop the reaction. The resulting solution was mixed well and allowed to stand for 90-110 minutes before reading plate. Assay Plates were read on Perkin-Elmer Envision plate readers with appropriate filters for Tamra [BODIPY-TMRI(1,3,4,5)P4]. Data obtained were used to calculate enzymatic activity and enzyme inhibition by inhibitor compounds. It is important to keep Red probe solutions dark. This procedure is adapted from Echelon Biosciences Inc procedure for their PI3-Kinase fluorescence polarization activity Assay kit Product number K-1100.

A further test has as its target T1, mTOR Kinase (FLAG-TOR) (Homo sapiens, UniProt P42345).
T1 construct: FLAG
The test is described as follows: mTOR kinase assay, purified enzyme, DELFIA format. To be noted: 100 μM ATP, 1.25 μM His6-S6K; read-out: mTOR Kinase Median IC50.

pIC50: −log10 of the molar value.

Sequence of PI3Kα (P42336 whole entry, species assumed): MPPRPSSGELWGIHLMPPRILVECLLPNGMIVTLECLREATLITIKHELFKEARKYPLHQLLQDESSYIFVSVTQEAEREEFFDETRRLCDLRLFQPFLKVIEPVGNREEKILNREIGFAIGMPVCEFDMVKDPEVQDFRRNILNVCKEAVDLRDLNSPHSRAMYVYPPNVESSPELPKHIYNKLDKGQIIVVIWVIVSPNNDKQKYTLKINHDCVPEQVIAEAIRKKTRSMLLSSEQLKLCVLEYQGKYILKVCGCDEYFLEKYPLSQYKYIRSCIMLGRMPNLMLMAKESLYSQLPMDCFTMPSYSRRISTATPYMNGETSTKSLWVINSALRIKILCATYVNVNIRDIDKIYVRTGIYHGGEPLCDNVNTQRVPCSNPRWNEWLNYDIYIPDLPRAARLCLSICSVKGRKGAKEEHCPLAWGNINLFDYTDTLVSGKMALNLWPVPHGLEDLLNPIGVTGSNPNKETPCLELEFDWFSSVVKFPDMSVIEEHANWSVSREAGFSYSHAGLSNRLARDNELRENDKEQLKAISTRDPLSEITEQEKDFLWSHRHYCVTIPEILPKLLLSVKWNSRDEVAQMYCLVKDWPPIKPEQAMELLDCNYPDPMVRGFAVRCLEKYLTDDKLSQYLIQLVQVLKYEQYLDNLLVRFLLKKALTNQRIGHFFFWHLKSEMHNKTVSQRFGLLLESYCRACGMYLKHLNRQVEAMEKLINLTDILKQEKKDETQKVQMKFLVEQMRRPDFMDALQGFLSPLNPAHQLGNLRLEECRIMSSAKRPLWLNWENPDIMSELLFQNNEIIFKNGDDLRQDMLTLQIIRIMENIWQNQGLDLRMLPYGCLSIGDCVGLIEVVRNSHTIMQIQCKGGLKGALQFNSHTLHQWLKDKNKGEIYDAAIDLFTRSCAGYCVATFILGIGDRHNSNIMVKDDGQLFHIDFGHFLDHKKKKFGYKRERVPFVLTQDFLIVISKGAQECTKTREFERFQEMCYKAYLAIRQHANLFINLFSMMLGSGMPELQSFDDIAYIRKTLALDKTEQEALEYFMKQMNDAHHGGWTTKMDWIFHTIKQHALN
Sequence of PI3Kα (P27986 whole entry partner, species assumed): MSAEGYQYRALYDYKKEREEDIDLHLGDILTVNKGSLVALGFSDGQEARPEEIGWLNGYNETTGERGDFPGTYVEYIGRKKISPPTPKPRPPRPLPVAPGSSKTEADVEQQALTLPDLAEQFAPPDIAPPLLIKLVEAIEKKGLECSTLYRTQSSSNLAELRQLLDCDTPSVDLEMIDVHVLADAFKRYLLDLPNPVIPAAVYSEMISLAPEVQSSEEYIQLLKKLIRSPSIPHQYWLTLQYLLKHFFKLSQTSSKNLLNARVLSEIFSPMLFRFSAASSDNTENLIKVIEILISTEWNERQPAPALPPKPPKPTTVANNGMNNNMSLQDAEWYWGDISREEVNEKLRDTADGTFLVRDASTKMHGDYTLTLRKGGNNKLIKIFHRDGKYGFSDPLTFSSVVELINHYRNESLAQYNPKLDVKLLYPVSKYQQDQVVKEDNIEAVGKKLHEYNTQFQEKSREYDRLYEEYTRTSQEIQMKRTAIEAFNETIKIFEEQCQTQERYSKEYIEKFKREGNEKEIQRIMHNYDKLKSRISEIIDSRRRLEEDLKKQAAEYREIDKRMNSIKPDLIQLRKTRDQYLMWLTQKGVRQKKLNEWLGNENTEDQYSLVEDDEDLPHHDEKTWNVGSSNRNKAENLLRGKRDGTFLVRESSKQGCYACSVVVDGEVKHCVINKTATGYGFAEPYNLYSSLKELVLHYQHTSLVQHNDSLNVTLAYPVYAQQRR
Sequence of PI3Kγ (P48736 whole entry, species assumed): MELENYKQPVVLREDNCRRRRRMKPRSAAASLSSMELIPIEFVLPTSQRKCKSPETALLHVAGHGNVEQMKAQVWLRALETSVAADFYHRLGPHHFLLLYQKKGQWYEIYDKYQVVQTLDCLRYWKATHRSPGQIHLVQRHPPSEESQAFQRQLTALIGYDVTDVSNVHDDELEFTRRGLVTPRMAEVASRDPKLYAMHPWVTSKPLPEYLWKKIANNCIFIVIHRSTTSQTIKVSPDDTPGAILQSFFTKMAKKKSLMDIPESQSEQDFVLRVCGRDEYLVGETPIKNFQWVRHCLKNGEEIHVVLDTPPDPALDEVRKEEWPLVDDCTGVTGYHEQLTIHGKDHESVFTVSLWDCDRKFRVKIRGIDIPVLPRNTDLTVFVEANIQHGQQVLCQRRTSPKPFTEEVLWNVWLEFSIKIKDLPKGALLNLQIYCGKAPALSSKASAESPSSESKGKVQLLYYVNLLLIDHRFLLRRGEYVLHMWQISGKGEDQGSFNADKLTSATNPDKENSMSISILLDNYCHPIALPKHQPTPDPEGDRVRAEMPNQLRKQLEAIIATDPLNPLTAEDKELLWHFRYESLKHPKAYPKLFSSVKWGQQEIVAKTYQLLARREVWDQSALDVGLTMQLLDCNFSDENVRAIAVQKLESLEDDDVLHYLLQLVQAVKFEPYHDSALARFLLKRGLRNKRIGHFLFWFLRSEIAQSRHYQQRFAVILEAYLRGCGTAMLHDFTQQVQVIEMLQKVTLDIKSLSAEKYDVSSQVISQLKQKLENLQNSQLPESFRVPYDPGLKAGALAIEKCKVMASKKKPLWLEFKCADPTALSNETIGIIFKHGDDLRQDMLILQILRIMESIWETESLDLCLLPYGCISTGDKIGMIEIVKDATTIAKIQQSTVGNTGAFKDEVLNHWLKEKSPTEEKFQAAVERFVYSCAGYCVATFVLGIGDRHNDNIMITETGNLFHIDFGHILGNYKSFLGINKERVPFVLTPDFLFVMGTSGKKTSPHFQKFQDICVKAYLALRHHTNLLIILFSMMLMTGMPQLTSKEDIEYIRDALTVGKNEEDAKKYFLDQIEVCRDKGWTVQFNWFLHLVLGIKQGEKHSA

What is called pIC50 is the IC50 on a negative log10 scale, so that one unit is a factor of ten. `CCn1ccc2c(N3CCOCC3)nc(-c3ccc(NC(=O)Nc4ccc(C(=O)N5CCSCC5)cc4)cc3)nc21` [Compound 71, 1-[4-(7-ethyl-4-morpholin-4-yl-7H-pyrrolo[2,3-d]pyrimidin-2-yl)phenyl]-3-[4-(thiomorpholin-4-ylcarbonyl)phenyl]urea]: the pIC50 at PI3Kα was 8.46; at PI3Kγ, 7.41; at mTOR Kinase (FLAG-TOR), 8.38.

With `CC(C)n1ccc2c(N3CCOCC3)nc(-c3ccc(NC(=O)Nc4ccc(N5CCN(C)CC5)cc4)cc3)nc21` [Compound 80, 1-[4-(7-isopropyl-4-morpholin-4-yl-7H-pyrrolo[2,3-d]pyrimidin-2-yl)phenyl]-3-[4-(4-methylpiperazin-1-yl)phenyl]urea], the results for the pIC50 on PI3Kα, on PI3Kγ and on mTOR Kinase (FLAG-TOR) were 7.33, 6.87 and 8.55, respectively.

As to `CCN1CCN(C(=O)c2ccc(NC(=O)Nc3ccc(-c4nc(N5CCOCC5)c5ccn(CC)c5n4)cc3)cc2)CC1` [Compound 70, 1-[4-(7-ethyl-4-morpholin-4-yl-7H-pyrrolo[2,3-d]pyrimidin-2-yl)phenyl]-3-{4-[(4-ethylpiperazin-1-yl)carbonyl]phenyl}urea], the pIC50 on PI3Kα was 8.60; on PI3Kγ it was 7.68; on mTOR Kinase (FLAG-TOR), 8.82.

Take `CC(C)n1ccc2c(N3CCOCC3)nc(-c3ccc(NC(=O)Nc4ccc(C(=O)N(C)CCN(C)C)cc4)cc3)nc21` [Compound 85, N-[2-(dimethylamino)ethyl]-4-({[4-(7-isopropyl-4-morpholin-4-yl-7H-pyrrolo[2,3-d]pyrimidin-2-yl)phenyl]carbamoyl}amino)-N-methylbenzamide]: the negative-log IC50 (pIC50) on PI3Kα is more than 8.74; on PI3Kγ it was 7.47; at mTOR Kinase (FLAG-TOR) it was 9.21.

`CN(C)CCOc1ccc(NC(=O)Nc2ccc(-c3nc(N4CCOCC4)c4ccn(CC(F)(F)F)c4n3)cc2)cc1` [Compound 58, 1-{4-[2-(dimethylamino)ethoxy]phenyl}-3-{4-[4-morpholin-4-yl-7-(2,2,2-trifluoroethyl)-7H-pyrrolo[2,3-d]pyrimidin-2-yl]phenyl}urea]: the pIC50 on PI3Kα was 8.70; on PI3Kγ, 7.96; at mTOR Kinase (FLAG-TOR) it was 8.35.

In the case of `CC(C)n1ccc2c(N3CCOCC3)nc(-c3ccc(NC(=O)Nc4ccc(C(=O)NCCN5CCCC5)cc4)cc3)nc21` [Compound 87, 4-({[4-(7-isopropyl-4-morpholin-4-yl-7H-pyrrolo[2,3-d]pyrimidin-2-yl)phenyl]carbamoyl}amino)-N-(2-pyrrolidin-1-ylethyl)benzamide], the pIC50 was 8.30 on PI3Kα, 7.06 at PI3Kγ and 9.26 on mTOR Kinase (FLAG-TOR).

For the compound `O=C(NCCO)Nc1ccc(-c2nc(N3CCOCC3)c3ccn(CC(F)(F)F)c3n2)cc1` [Compound 42, 1-(2-hydroxyethyl)-3-{4-[4-morpholin-4-yl-7-(2,2,2-trifluoroethyl)-7H-pyrrolo[2,3-d]pyrimidin-2-yl]phenyl}urea], the pIC50 was 6.96 at PI3Kα, 6.41 on PI3Kγ and 9.03 at mTOR Kinase (FLAG-TOR).

Take `COC(=O)c1ccc(NC(=O)Nc2ccc(-c3nc(N4CCOCC4)c4ccn(C(C)C)c4n3)cc2)cc1` [Compound 89, methyl 4-({[4-(7-isopropyl-4-morpholin-4-yl-7H-pyrrolo[2,3-d]pyrimidin-2-yl)phenyl]carbamoyl}amino)benzoate]: the figures for the pIC50 on PI3Kα, on PI3Kγ and at mTOR Kinase (FLAG-TOR) were 6.93, 6.29 and 8.32, respectively.

For `CCn1ccc2c(N3CCOCC3)nc(-c3ccc(NC(=O)Nc4ccc(C(=O)N5CCN(C)CC5)cc4)cc3)nc21` [Compound 63, 1-[4-(7-ethyl-4-morpholin-4-yl-7H-pyrrolo[2,3-d]pyrimidin-2-yl)phenyl]-3-{4-[(4-methylpiperazin-1-yl)carbonyl]phenyl}urea], the pIC50 at PI3Kα was 8.85; on PI3Kγ it was 7.72; at mTOR Kinase (FLAG-TOR), 8.76.

Turning to `CCn1ccc2c(N3CCOCC3)nc(-c3ccc(NC(=O)NC)cc3)nc21` [Compound 96, 1-[4-(7-ethyl-4-morpholin-4-yl-7H-pyrrolo[2,3-d]pyrimidin-2-yl)phenyl]-3-methylurea], the values for the pIC50 on PI3Kα, at PI3Kγ and at mTOR Kinase (FLAG-TOR) were 6.85, 5.81 and 8.31, respectively.

For the compound `CCn1ccc2c(N3CCOCC3)nc(-c3ccc(NC(=O)Nc4ccc(C(=O)N5CCN(c6ccccn6)CC5)cc4)cc3)nc21` [Compound 75, 1-[4-(7-ethyl-4-morpholin-4-yl-7H-pyrrolo[2,3-d]pyrimidin-2-yl)phenyl]-3-{4-[(4-pyridin-2-ylpiperazin-1-yl)carbonyl]phenyl}urea], the pIC50 at PI3Kα is 8.10; on PI3Kγ, 7.44; on mTOR Kinase (FLAG-TOR) it was 8.25.

On to `CCn1ccc2c(N3CCOCC3)nc(-c3ccc(NC(=O)Nc4ccc(C(=O)NCCN(C)C)cc4)cc3)nc21` [Compound 62, N-[2-(dimethylamino)ethyl]-4-({[4-(7-ethyl-4-morpholin-4-yl-7H-pyrrolo[2,3-d]pyrimidin-2-yl)phenyl]carbamoyl}amino)benzamide], for which the figures for the pIC50 at PI3Kα, on PI3Kγ and on mTOR Kinase (FLAG-TOR) were more than 8.62, 7.60 and 9.25, respectively.

Regarding `CCn1ccc2c(N3CCOCC3)nc(-c3ccc(NC(=O)Nc4ccc(C(=O)N5CCNCC5)cc4)cc3)nc21` [Compound 67, 1-[4-(7-ethyl-4-morpholin-4-yl-7H-pyrrolo[2,3-d]pyrimidin-2-yl)phenyl]-3-[4-(piperazin-1-ylcarbonyl)phenyl]urea], the figures for the negative-log IC50 (pIC50) on PI3Kα, at PI3Kγ and on mTOR Kinase (FLAG-TOR) were more than 8.74, 8.10 and 9.00, respectively.

With `CC(C)n1ccc2c(N3CCOCC3)nc(-c3ccc(NC(=O)Nc4ccc(C(=O)NCCN(C)C)cc4)cc3)nc21` [Compound 86, N-[2-(dimethylamino)ethyl]-4-({[4-(7-isopropyl-4-morpholin-4-yl-7H-pyrrolo[2,3-d]pyrimidin-2-yl)phenyl]carbamoyl}amino)benzamide], the values for the negative-log IC50 (pIC50) at PI3Kα, on PI3Kγ and at mTOR Kinase (FLAG-TOR) were 8.77, 7.30 and 9.42, respectively.

For `Nc1nc2cc(-c3nc(N4CCOCC4)c4ccn(CC(F)(F)F)c4n3)ccc2[nH]1` [Compound 45, 5-[4-morpholin-4-yl-7-(2,2,2-trifluoroethyl)-7H-pyrrolo[2,3-d]pyrimidin-2-yl]-1H-benzimidazol-2-amine], the negative-log IC50 (pIC50) at PI3Kα was 7.35; on PI3Kγ, 6.30; at mTOR Kinase (FLAG-TOR), 7.44.

`CC(C)NCCn1ccc2c(N3CCOCC3)nc(-c3ccc(NC(=O)Nc4ccncc4)cc3)nc21` [Compound 32, 1-(4-{7-[2-(isopropylamino)ethyl]-4-morpholin-4-yl-7H-pyrrolo[2,3-d]pyrimidin-2-yl}phenyl)-3-pyridin-4-ylurea]: the pIC50 is 7.43 on PI3Kα, 6.61 at PI3Kγ and 7.64 at mTOR Kinase (FLAG-TOR).

Turning to `CN(C)CCNC(=O)c1ccc(NC(=O)Nc2ccc(-c3nc(N4CCOCC4)c4ccn(CC(F)(F)F)c4n3)cc2)cc1` [Compound 52, N-[2-(dimethylamino)ethyl]-4-[({4-[4-morpholin-4-yl-7-(2,2,2-trifluoroethyl)-7H-pyrrolo[2,3-d]pyrimidin-2-yl]phenyl}carbamoyl)amino]benzamide], the pIC50 at PI3Kα was 8.96; at PI3Kγ, 7.62; at mTOR Kinase (FLAG-TOR), 9.52.

As to `CC(C)N1CCN(C(=O)c2ccc(NC(=O)Nc3ccc(-c4nc(N5CCOCC5)c5ccn(C(C)C)c5n4)cc3)cc2)CC1` [Compound 93, 1-{4-[7-(1-methylethyl)-4-morpholin-4-yl-7H-pyrrolo[2,3-d]pyrimidin-2-yl]phenyl}-3-(4-{[4-(1-methylethyl)piperazin-1-yl]carbonyl}phenyl)urea], the pIC50 on PI3Kα is 7.92; at PI3Kγ it was 7.09; at mTOR Kinase (FLAG-TOR), 9.03.

Take `CCn1ccc2c(N3CCOCC3)nc(-c3ccc(NC(=O)Nc4ccc(C(=O)O)cc4)cc3)nc21` [Compound 60, 4-({[4-(7-ethyl-4-morpholin-4-yl-7H-pyrrolo[2,3-d]pyrimidin-2-yl)phenyl]carbamoyl}amino)benzoic acid]: the pIC50 at PI3Kα was 7.84; on PI3Kγ, 6.92; on mTOR Kinase (FLAG-TOR) it was 9.07.

With `CC(C)n1ccc2c(N3CCOCC3)nc(-c3ccc(NC(=O)Nc4ccc(C(=O)N5CCC(N(C)C)CC5)cc4)cc3)nc21` [Compound 84, 1-(4-{[4-(dimethylamino)piperidin-1-yl]carbonyl}phenyl)-3-[4-(7-isopropyl-4-morpholin-4-yl-7H-pyrrolo[2,3-d]pyrimidin-2-yl)phenyl]urea], the figures for the negative logarithm of the IC50 (pIC50) on PI3Kα, at PI3Kγ and at mTOR Kinase (FLAG-TOR) were 8.40, 7.42 and 9.10, respectively.

On to `CCn1ccc2c(N3CCOCC3)nc(-c3ccc(NC(=O)Nc4ccc(C(=O)N5CCC(N6CCOCC6)CC5)cc4)cc3)nc21` [Compound 77, 1-[4-(7-ethyl-4-morpholin-4-yl-7H-pyrrolo[2,3-d]pyrimidin-2-yl)phenyl]-3-{4-[(4-morpholin-4-ylpiperidin-1-yl)carbonyl]phenyl}urea], for which the results for the pIC50 on PI3Kα, on PI3Kγ and at mTOR Kinase (FLAG-TOR) were 8.26, 7.19 and 8.76, respectively.
